Assay results from patent US20240148821A1, “PHARMACEUTICAL USE OF CYCLIC PEPTIDE COMPOUND” (CHUGAI SEIYAKU KABUSHIKI KAISHA, priority 2021, published 2024).
pIC50: −log10 of the molar value. Bridge positions count the residues as written; N and C are the ends. Square brackets hold non-standard residues; d marks the D form. Peptide text beside a SMILES is read from it. * marks the point of attachment. hPhe(3,5-F2-4-CF3) = N[C@@H](CCc1cc(F)c(C(F)(F)F)c(F)c1)C(=O)O; hPhe(3-Cl-4-CF3) = N[C@@H](CCc1ccc(C(F)(F)F)c(Cl)c1)C(=O)O; NMePhe(4-Me) = CN[C@@H](Cc1ccc(C)cc1)C(=O)O; NMeMet(O2) = CN[C@@H](CCS(C)(=O)=O)C(=O)O; NMeGly(cPent) = CN[C@H](C(=O)O)C1CCCC1; NMeCha = CN[C@@H](CC1CCCCC1)C(=O)O; NMeI = CC[C@H](C)[C@H](NC)C(=O)O; NMeD = CN[C@@H](CC(=O)O)C(=O)O; NMeL = CN[C@@H](CC(C)C)C(=O)O; NMeNva = CCC[C@H](NC)C(=O)O; NMeV = CN[C@H](C(=O)O)C(C)C; NMeC = CN[C@@H](CS)C(=O)O; NMeA = CN[C@@H](C)C(=O)O; Piperidide = C1CCN(*)CC1; Pra = C#CC[C@H](N)C(=O)O; Ac5c = NC1(C(=O)O)CCCC1; Aze = O=C(O)[C@@H]1CCN1; Abu = CC[C@H](N)C(=O)O; NEtG = CCNCC(=O)O; Sar = CNCC(=O)O

Key:
[1] = target: protein-protein interaction between Kras and SOS1 (biotin-tagged human Kras loaded with GDP, His-tagged human SOS1) (Homo sapiens (Human), UniProt P01116, G12D); experiment: Protein-protein interaction inhibition between Kras and SOS1 (KrasG12D-SOS PPI) using AlphaScreen; type: biochemical; conditions: AlphaScreen; biotin-tagged human Kras loaded with GDP, His-tagged human SOS1; read-out: KRAS G12D-SOS PPI IC50;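 also: kras produced in E. coli, Ni-coupled donor beads and streptavidin acceptor beads, excitation 680 nm with emission detected at 520–620 nm via singlet oxygen transfer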
[2] = system: Human pancreatic cancer cell line AsPC-1 (G12D mutation Kras); experiment: AsPC-1 cell growth inhibition (AsPC-1 CGI); type: cell-based; conditions: read-out: AsPC-1 cell growth inhibition, 50% growth inhibitory concentration (IC50 value); 96 hours, CellTiter-Glo, values classified in ranges

| Compound | pIC50 [1] | pIC50 [2] |
| --- | --- | --- |
| C#CC[C@@H]1NC(=O)[C@H](CC(C)C)N(C)C(=O)C[C@@H](C(=O)N2CCCCC2)N(C)C(=O)[C@H](C(C)C)N(C)C(=O)C2(CCCC2)NC(=O)[C@@H]2CCCN2C(=O)[C@H](CCc2ccc(C(F)(F)F)c(Cl)c2)NC(=O)CN(C)C(=O)[C@H](CC2CCCCC2)N(C)C(=O)[C@@H]2CCN2C(=O)[C@H](C)N(C)C1=O [Compound 946] ([NMeL][Pra][NMeA][Aze][NMeCha][Sar][hPhe(3-Cl-4-CF3)]P[Ac5c][NMeV][NMeD]-Piperidide; lactam N-11) | 8.12 | < 6.30 |
| CC[C@H](C)[C@@H]1NC(=O)[C@H](CCS(C)(=O)=O)N(C)C(=O)C[C@@H](C(=O)N2CCCCC2)N(C)C(=O)[C@H](C(C)C)N(C)C(=O)C2(CCCC2)NC(=O)[C@@H]2CCCN2C(=O)[C@H](CCc2ccc(C(F)(F)F)c(Cl)c2)NC(=O)CN(C)C(=O)[C@H](CC2CCCCC2)N(C)C(=O)[C@@H]2CCN2C(=O)[C@H](C)N(C)C1=O [Compound 419] ([NMeMet(O2)]I[NMeA][Aze][NMeCha][Sar][hPhe(3-Cl-4-CF3)]P[Ac5c][NMeV][NMeD]-Piperidide; lactam N-11) | 8.62 | < 6.30 |
| CC[C@H](C)[C@@H]1NC(=O)[C@H](CC(C)C)N(C)C(=O)C[C@@H](C(=O)N(C)C)N(C)C(=O)[C@H](C2CCCC2)N(C)C(=O)C2(CCCC2)NC(=O)[C@@H]2CCCN2C(=O)[C@H](CCc2ccc(C(F)(F)F)c(Cl)c2)NC(=O)CN(CC)C(=O)[C@H](Cc2ccc(C)cc2)N(C)C(=O)[C@@H]2CCN2C(=O)[C@H](C)N(C)C1=O [Compound 5] ([NMeL]I[NMeA][Aze][NMePhe(4-Me)][NEtG][hPhe(3-Cl-4-CF3)]P[Ac5c][NMeGly(cPent)][NMeD]-NMe2; lactam N-11) | 9.00 | ≥ 7.70 |
| CC[C@H](C)[C@@H]1NC(=O)[C@H](CC(C)C)N(C)C(=O)CSC[C@@H](C(=O)N(C)C)N(C)C(=O)[C@H]([C@@H](C)CC)N(C)C(=O)C2(CCCC2)NC(=O)[C@@H]2CCCN2C(=O)[C@H](CCc2ccc(C(F)(F)F)c(Cl)c2)NC(=O)CN(C)C(=O)[C@H](Cc2ccc(C)cc2)N(C)C(=O)CN(C)C(=O)CN(C)C1=O [Compound 2178] ({CH2CO}-[NMeL]I[Sar][Sar][NMePhe(4-Me)][Sar][hPhe(3-Cl-4-CF3)]P[Ac5c][NMeI][NMeC]-NMe2; thioether N-11) | 6.80 | < 6.30 |
| CCC[C@H]1C(=O)N[C@@H]([C@@H](C)CC)C(=O)N(C)[C@@H](C)C(=O)N2CC[C@H]2C(=O)N(C)[C@@H](CC2CCCCC2)C(=O)N(C)CC(=O)N[C@@H](CCc2ccc(C(F)(F)F)c(Cl)c2)C(=O)N2CCC[C@H]2C(=O)NC2(CCCC2)C(=O)N(C)[C@@H]([C@@H](C)CC)C(=O)N(C)[C@H](C(=O)N2CCCCC2)CC(=O)N1C [Compound 1132] ([NMeNva]I[NMeA][Aze][NMeCha][Sar][hPhe(3-Cl-4-CF3)]P[Ac5c][NMeI][NMeD]-Piperidide; lactam N-11) | 8.89 | ≥ 7.70 |
| CC[C@@H]1NC(=O)[C@H](CC(C)C)N(C)C(=O)C[C@@H](C(=O)N2CCCCC2)N(C)C(=O)[C@H](C(C)C)N(C)C(=O)C2(CCCC2)NC(=O)[C@@H]2CCCN2C(=O)[C@H](CCc2ccc(C(F)(F)F)c(Cl)c2)NC(=O)CN(C)C(=O)[C@H](CC2CCCCC2)N(C)C(=O)[C@@H]2CCN2C(=O)[C@H](C)N(C)C1=O [Compound 1760] ([NMeL][Abu][NMeA][Aze][NMeCha][Sar][hPhe(3-Cl-4-CF3)]P[Ac5c][NMeV][NMeD]-Piperidide; lactam N-11) | 7.49 | < 6.30 |
| CC[C@H](C)[C@@H]1NC(=O)[C@H](CC(C)C)N(C)C(=O)C[C@@H](C(=O)N(C)C)N(C)C(=O)[C@H](C2CCCC2)N(C)C(=O)C2(CCCC2)NC(=O)[C@@H]2CCCN2C(=O)[C@H](CCc2cc(F)c(C(F)(F)F)c(F)c2)NC(=O)CN(C)C(=O)[C@H](CC2CCCCC2)N(C)C(=O)[C@@H]2CCN2C(=O)[C@H](C)N(C)C1=O [Compound 1170] ([NMeL]I[NMeA][Aze][NMeCha][Sar][hPhe(3,5-F2-4-CF3)]P[Ac5c][NMeGly(cPent)][NMeD]-NMe2; lactam N-11) | 9.27 | ≥ 7.70 |
